The test system of data set [1] is MDCK cells. The data set is described as follows: Reduction of intracellular cAMP levels in forskolin stimulated MDCK cells (Experiment 2). It is filed as cell-based, canine. The conditions noted are these: 10 μM compound for 10 min prior to forskolin (10 μM) for 2 min; FIG. 6. As for the experimental part:
HEK 293 and MDCK cells (Public Health England, Cell Culture Collections) were maintained in DMEM supplemented with 10% (v/v) fetal bovine serum (Seralab), 2 mM L-glutamine, 1,000 U penicillin and 1,000 μg streptomycin (Life Technologies); termed complete media. Clonal HEK 293 cell lines were maintained in complete media supplemented with 0.6 mg/mL G418 (Enzo Life Sciences).
HEK 293 or MDCK cells were seeded at 100,000 cells per well, and left to adhere overnight. The cells were then treated with the compound indicated (10 μM) for 10 minutes, prior to stimulation with forskolin (10 μM, Sigma) for 2 minutes. Media was aspirated, and hydrochloric acid (0.1M) was added to lyse the cells. The cAMP assay (Enzo Life Sciences) was performed according to the manufacturers instructions.
On the technique in general: Changes in cAMP serve as a functional read-out for many G protein-coupled receptors.

Data set [2] has as its system MDCK cells. The data set is described as follows: Reversal of in vitro cyst formation in MDCK cells (Experiment 4). It is filed as cell-based, canine. The following applies: compound added every 2 days from day 10 to day 20, with forskolin and vasopressin; FIG. 8. As for the experimental part:
In this study, the potential of PDE4 long form activators to reverse the formation of pre-formed cysts was evaluated. The experiment was carried out according to the method of Experiment 3. For the first 10 days, forskolin and vasopressin were added at every feed (every 2 days) but no test compound was added. For the next 10 days, the test compound, forskolin and vasopressin were added at every feed (every 2 days).
Phase-contrast images were obtained on the Motic microscope (×200 magnification) every 2 days for 20 days. Per condition, 10 images were taken (in duplicate) and the average cyst radius measured.

In data set [3] the target is T1, full length human PDE4B2 short isoform (Homo sapiens, UniProt Q07343).
T1 construct: the full length human PDE4B2 short isoform; made in house; cytosol fraction of the lysate
T1 sequence (Q07343 1-564 isoform Q07343-2): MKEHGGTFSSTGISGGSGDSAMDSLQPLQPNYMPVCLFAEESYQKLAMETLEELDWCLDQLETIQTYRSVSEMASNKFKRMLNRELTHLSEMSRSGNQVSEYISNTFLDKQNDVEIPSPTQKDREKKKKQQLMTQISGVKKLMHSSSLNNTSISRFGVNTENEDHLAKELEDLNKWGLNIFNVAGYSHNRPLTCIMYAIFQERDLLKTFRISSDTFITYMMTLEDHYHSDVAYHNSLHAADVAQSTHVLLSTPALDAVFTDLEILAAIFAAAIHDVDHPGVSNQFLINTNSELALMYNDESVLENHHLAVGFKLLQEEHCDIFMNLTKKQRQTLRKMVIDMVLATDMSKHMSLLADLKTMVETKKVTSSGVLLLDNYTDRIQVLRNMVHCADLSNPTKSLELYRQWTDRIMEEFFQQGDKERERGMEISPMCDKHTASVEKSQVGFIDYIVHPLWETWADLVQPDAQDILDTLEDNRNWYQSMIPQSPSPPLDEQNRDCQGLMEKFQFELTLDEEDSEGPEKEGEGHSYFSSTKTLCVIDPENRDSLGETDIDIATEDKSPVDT
The data set is described as follows: PDE4 radio-assay, PDE4B2 short form (Experiment 1). It is filed as biochemical. The conditions noted are these: method of Experiment 1; FIG. 4. The method, then:
One suitable method of detecting whether or not a compound is capable of serving as an activator of a PDE4 long form is using a two-step radio-assay procedure described in Experiment 1. In summary, the method involves incubating a PDE4 long form with a test small molecule activator, together with [^3H]-labelled cAMP to assess alterations in the breakdown of cAMP to the 5′-adenosine monophosphate (5′-AMP) product. A sample of the reaction mixture from such an incubation is subsequently treated with snake venom 5′-nucleotidase to allow conversion of the nucleotide [^3H]-labelled 5′-AMP to the uncharged nucleoside [^3H]-labelled adenosine, which can be separated and quantified to assess PDE4 activity and the effect of the test compound (Thompson, W. J. and Appleman, M. M. Biochemistry 10: 311-316, 1971, with some modifications as described in: Marchmont, R. J. and Houslay, M. D. Biochem J. 187: 381-92, 1980).
HEK 293 cells were transfected with pDEST™ PDE4 expression vectors using Lipofectamine LTX/Plus reagent (Invitrogen) as outlined by the manufacturer and clonal isolates expanded to obtain cell lines that stably expressed the full-length human PDE4D5, PDE4A4 and PDE4B1 long isoforms and the full length human PDE4B2 short isoform. These were called the HEK-PDE4D5, HEK-PDE4A4, HEK-PDE4B1 and HEK-PDE4B2 cell lines, respectively.
HEK-PDE4D5 cells were seeded out in 100 mm plates and incubated at 37° C. in an atmosphere of 5% CO2, 95% air. Cell lysates were prepared using KHEM buffer [50 mM KCl, 10 mM EGTA, 50 mM HEPES (pH 7.2), 1.92 mM MgCl2].
To prepare the cell lysates, the 100 mm plates containing the cells were placed on ice and washed with ice-cold PBS (phosphate buffered saline, pH 7.4). KHEM buffer (500 μl) was added to the cells. Cells were then scraped off the plate and triturated using a needle (BD Microlance™ 0.8, 40 mm). The lysed cells were then centrifuged at 2000 rpm for 10 minutes to remove cell debris and the supernatant (cell lysate containing recombinant PDE4D5) was transferred to a fresh tube and kept on ice.
The cell lysate containing recombinant PDE4D5 was transferred into a centrifuge tube and placed into an ultracentrifuge (BECKMAN COULTER) and spun at high speed (100,000 g) for 30 minutes at 4° C. The cytosol fraction was then collected and its protein amount determined using a BCA protein assay.
PDE assays were performed using a final concentration of 10 mM Tris/5 mM MgCl2 and 1 μM [3H]-cAMP (Perkin Elmer) plus PDE4D5 cell lysate cytosol fraction, containing over-expressed PDE4D5, with and without test compound. Incubations were performed at 30° C. for 5 minutes. […] Tubes were vortexed thoroughly to mix and the recovered [3H]-adenosine was quantified by measuring counts over 1 minute in a scintillation counter.

Data set [4] can be described thus: Pharmacokinetic profile in male C57 mice (Experiment 7). It is filed as in vivo, mouse. As for the experimental part: Example A was dissolved in 5% DMA+10% Solutol+85%(10% HPBCD in water) to afford a clear dosing solution of 1 mg/mL. The dosing solution was administered to three mice at 2 mg/kg i.v. via the tail vein and to three further mice at 10 mg/kg p.o. via oral gavage. Blood samples (ca. 20 μL) were collected at 2, 5, 20 min, 1, 2, 4, 8 and 12 h after i.v. dosing and at 15, 30 min, 1, 2, 4, 8, 12 and 24 h after oral dosing. The blood samples were diluted with 3 volumes of distilled water and stored at −80° C. until analysis. The samples were analysed by UPLC-MS/MS (API 5500).

Data on 1 molecule can be found in patent publication US10793531B2, “Triazole derivatives and their use as PDE4 activators” (MIRONID LIMITED, priority 2015, dated 2020).

Each structure is given as a SMILES string. Read-outs that look alike come from different tables or passages of the source.

A word on the half-life: it is the time needed for the level to fall by half in the phase considered. What is called bioavailability is dose-corrected exposure relative to a reference, in per cent. Low values mean poor availability, high ones good availability. Take `CCc1nc(-c2ccc(Cl)c(F)c2)nn1CC(=O)NCc1cccc(F)c1` [Example A, N-(3-Fluorobenzyl)-2-[3-(4-chloro-3-fluorophenyl)-5-ethyl-1H-1,2,4-triazol-1-yl]acetamide]: the “intracellular cAMP levels in MDCK cells (in words)” value in the data set with MDCK cells [1] is listed as “reduction in intracellular cAMP levels”. Also, the “in vitro cyst formation in MDCK cells, reversal (in words)” value in the data set on MDCK cells [2] was “reversal of in vitro cyst formation”. Besides, the “activation of PDE4B2, a short form of PDE4 (in words)” value in data set [3] was “lack of activation”. In addition, the “abnormal effects observed in the mice” value in data set [4] (2 mg/kg i.v. or 10 mg/kg p.o.) is “No abnormal effects were observed”. The half-life in data set [4] (mouse, iv, 2 mg/kg i.v., whole blood, read-out: terminal half life after i.v. dosing (converted)) was 4.2 h; in data set [4] (mouse, po, 10 mg/kg p.o., whole blood, read-out: terminal half life after oral dosing (converted)), 4.9 h. Moreover, the bioavailability in data set [4] (mouse, oral, 10 mg/kg p.o. vs 2 mg/kg i.v., whole blood) was 66%.
